Structures can show the parent of a compound that is named as a salt. The source made the active and inactive calls. The rule behind the calls is not given here.
Experiments:
[1] = Antiproliferative activity against human NCI-H1299 cells assessed as reduction in cell viability incubated for 72 hrs by MTT assay; format: functional, cell-based; settings: NCI-H1299, 72 h
[2] = test system: U-87 MG; assay: Antiproliferative activity against human U87 cells assessed as reduction in cell viability incubated for 72 hrs by MTT assay; format: functional, cell-based, U-87MG ATCC
[3] = test system: HepG2; assay: Antiproliferative activity against human HepG2 cells assessed as reduction in cell viability incubated for 72 hrs by MTT assay; format: functional, cell-based; settings: HepG2, 72 h
[4] = test system: SMMC-7721; assay: Antiproliferative activity against human SMMC-7721 cells assessed as reduction in cell viability incubated for 72 hrs by MTT assay; format: functional, cell-based; settings: SMMC-7721, 72 h
[5] = test system: SMMC-7721; assay: Inhibition of TGF-beta1-induced cell migration in human SMMC-7721 cells at 0.5 uM incubated for 24 hrs by wound healing assay relative to control; format: functional
[6] = test system: SMMC-7721; assay: Inhibition of epithelial-mesenchymal transition in human SMMC-7721 cells assessed as increase in TGF-beta1 reduced E-cadherin expression at 0.5 uM incubated for 48 hrs by Western blot analysis; format: functional, cell-based
[7] = test system: SMMC-7721; assay: Inhibition of epithelial-mesenchymal transition in human SMMC-7721 cells assessed as decrease in TGF-beta1-induced vimentin expression at 0.5 uM incubated for 48 hrs by Western blot analysis; format: functional, cell-based
[8] = test system: SMMC-7721; assay: Inhibition of epithelial-mesenchymal transition in human SMMC-7721 cells assessed as decrease in TGF-beta1-induced MMP9 expression at 0.5 uM incubated for 48 hrs by Western blot analysis; format: functional, cell-based
[9] = test system: SMMC-7721; assay: Inhibition of TGF-beta1-induced cell invasion in human SMMC-7721 cells at 0.5 uM incubated for 2 days by crystal violet staining based matrigel transwell migration assay; format: functional; settings: time 2.0 day
[10] = test system: SMMC-7721; assay: Inhibition of epithelial-mesenchymal transition in human SMMC-7721 cells assessed as increase in TGF-beta1 reduced E-cadherin expression at 0.5 uM incubated for 48 hrs by Immunofluorescence staining based laser-scanning confocal microscope; format: functional, cell-based
[11] = test system: SMMC-7721; assay: Inhibition of epithelial-mesenchymal transition in human SMMC-7721 cells assessed as decrease in TGF-beta1-induced vimentin expression at 0.5 uM incubated for 48 hrs by immunofluorescence staining based laser-scanning confocal microscope; format: functional, cell-based
[12] = test system: SMMC-7721; assay: Inhibition of epithelial-mesenchymal transition in human SMMC-7721 cells assessed as decrease in TGF-beta1-induced MMP9 expression at 0.5 uM incubated for 48 hrs by immunofluorescence staining based laser-scanning confocal microscope; format: functional, cell-based

## Cc1nn(C)c(Oc2cccc(C(F)(F)F)c2)c1/C=N\OCCCCCCOc1cc2oc(=O)cc(C)c2cc1Cl
[1]
  IC50: > 25 µM
[2]
  IC50: 23.4 µM
[3]
  IC50: > 25 µM
[4]
  IC50: 24.8 µM

## Cc1nn(C)c(Oc2ccc(OC(F)(F)F)cc2)c1/C=N\OCCCCCCOc1cc2oc(=O)cc(C)c2cc1Cl
[1]
  IC50: 11.9 µM
[2]
  IC50: 9.62 µM
[3]
  IC50: 8.16 µM
[4]
  IC50: 6.35 µM

## COc1cccc2c1C(=O)c1c(O)c3c(c(O)c1C2=O)C[C@@](O)(C(=O)CO)C[C@@H]3O[C@H]1C[C@H](N)[C@H](O)[C@H](C)O1 [DOXORUBICIN HYDROCHLORIDE]
[2]
  IC50: 4.28 µM
[3]
  IC50: 2.32 µM
[5]
  inhibition: Active
[6]
  inhibition: Active
[7]
  inhibition: Active
[8]
  inhibition: Active
[9]
  inhibition: Active
[10]
  inhibition: Active
[11]
  inhibition: Active
[12]
  inhibition: Active

## O=c1[nH]cc(F)c(=O)[nH]1 [FLUOROURACIL]
[1]
  IC50: 41.8 µM
[2]
  IC50: 45.3 µM
[3]
  IC50: 31.7 µM
